# Values quoted from earlier work in patent US7576133B2, “Methods and compositions for nasal administration of modafinil” (priority 2002, dated 2009).
smiles,measurement,setting,value
"NC(=O)C[S+]([O-])C(c1ccccc1)c1ccccc1 (racemic) [Modafinil, 2-[(diphenylmethyl)sulfinyl] acetamide]",solubility in lower alcohols,lower alcohols,slightly soluble
same,solubility in water,water,practically insoluble
